Source: patent US8030352B2, “Method of producing retinyl esters” (Unilever Home & Personal Care USA, division of Conopco, Inc., priority 2002, dated 2011)

Assay: Retinyl ester stability in moisturising cream formulations (HPLC)
Assay type: physicochemical
Settings: 0.03 and 0.15% retinyl ester in cream; stored at 22, 30, 45 and 50° C.; sampled over 35 days; FIGS. 1 and 2
Description: Retinyl Linoleate from National Starch Corp. and the retinyl ester product from example 1 were blended into moisturising cream formulations shown below in Formulations 1 and 2 at a level of 0.03 and 0.15% of the retinyl ester. The creams were stored at 22° C., 30° C., 45° C. and 50° C. and samples taken at time 0, and twice more over 35 days as shown in FIGS. 1 and 2.
The retinyl esters were extracted from the base cream 60/40 acetone/acetonitrile, stirred for 10 minutes, filtered and then injected These were then analysed by HPLC according to the conditions below.
FIGS. 1 and 2 show the stability results for the samples.

CCCCCCCCCCCCCCCC(=O)OC/C=C(C)/C=C/C=C(C)/C=C/C1=C(C)CCCC1(C)C [retinyl palmitate]
stability in moisturising cream: only as stable as retinyl linoleate (National Starch)
